# Assay results published in patent US20240300902A1, “NOVEL TRANSGLUTAMINASE 2 INHIBITOR AND USE THEREOF” (MD BIOLAB CO., LTD., priority 2021, published 2024).
# Experiments:
# [1] = Toxicity by single oral administration; assay type: in vivo, ICR mice; settings: 500 to 2000 mg/kg
# Description: LDD3959 was orally administered once for each concentration in the range of 500 to 2000 mg/kg, and adverse events (body weight changes, feed intake changes, general appearance changes) were checked for 2 weeks. After 2 weeks of administration, the mice were sacrificed. Then, the mice underwent hematological examination and measurement of weight change of each organ thereof. In addition, the same experiment was performed on five ICR female mice and five ICR male mice to identify gender-dependent differences.
# [2] = test system: MDA-MB231 breast cancer cells; assay: Cell viability in breast cancer cell lines according to treatment time; assay type: cell-based; settings: MDA-MB231, 24, 48 and 72 hours
# Description: Breast cancer cells (50,000 cells/well, 100 μl) were cultured in 96-well microplates, and after 24 hours, LDD3959 was added to each well in various concentrations, using a serum-free cell culture medium. In each well, a reaction was performed at 37° C. in the presence of 5% CO2 for 2 hours.
# Next, the existing culture medium was replaced with a culture medium containing 10% FSB, and 24, 48, and 72 hours of reactions were performed. After the completion of each reaction, the exiting culture medium was removed, a culture medium containing a water soluble tetrazolium (WST) salt was added, the plate was allowed to react at 37° C. in the presence of 5% CO2 for a duration in the range of 1 hour to 3 hours, and the absorbance was measured at 450 nm.
# [3] = test system: p53; assay: P53 rescue test using western blotting; assay type: cell-based; settings: low to high concentration, cancer cell lines
# Description: Whole cell lysates were prepared using a radioimmunoprecipitation assay (RIPA) buffer (150 mM sodium chloride, 1.0% (w/v) IGEPAL® CA-630 (NP-40), 0.5% (w/v) sodium deoxycholate, 0.1% (w/v) sodium dodecyl sulfate (SDS), a protease inhibitor cocktail, and 50 mM Tris-HCl (pH 8.0) containing a phosphatase inhibitor cocktail. Protein assays were performed through Bradford protein assay (Thermo Scientific, Waltham, MA, USA) to normalize protein expression. The proteins were resolved by SDS-PAGE and transferred to polyvinylidene difluoride (PVDF) membranes (Merck Millipore, Burlington, MA, USA). The membranes were blocked with 5% (w/v) BSA for 1 hour at room temperature and incubated overnight at 4° C. with labeled antibodies. Membranes were washed in TBS-T for 1 hour at room temperature and incubated together with a horseradish peroxidase (HRP)-bound secondary antibody for 1 hour at room temperature. Finally, the membranes were washed in TBS-T for 1 hour at room temperature and developed with enhanced chemiluminescence.
# [4] = test system: a total of 8 tumors; assay: OncoPanel assay conducted by Eurofins; assay type: cell-based
# Description: The OncoPanel™ assay conducted by Eurofins confirmed the antitumor efficacy of LDD3959 in a total of 8 tumors at concentrations of 10 μM or lower.
# [5] = biological target: T1, guinea pig liver-originated transglutaminase 2 (Cavia cutleri, UniProt P08587); assay: In vitro transglutaminase 2 assay (1), [1,4-14C] putrescine incorporation into succinylated casein; assay type: biochemical
# T1 construct: 1 mU of guinea pig liver-originated transglutaminase 2 (Sigma, St. Louis, MO, USA); purchased Sigma; host or cells: guinea pig liver
# T1 sequence (P08587 1-690): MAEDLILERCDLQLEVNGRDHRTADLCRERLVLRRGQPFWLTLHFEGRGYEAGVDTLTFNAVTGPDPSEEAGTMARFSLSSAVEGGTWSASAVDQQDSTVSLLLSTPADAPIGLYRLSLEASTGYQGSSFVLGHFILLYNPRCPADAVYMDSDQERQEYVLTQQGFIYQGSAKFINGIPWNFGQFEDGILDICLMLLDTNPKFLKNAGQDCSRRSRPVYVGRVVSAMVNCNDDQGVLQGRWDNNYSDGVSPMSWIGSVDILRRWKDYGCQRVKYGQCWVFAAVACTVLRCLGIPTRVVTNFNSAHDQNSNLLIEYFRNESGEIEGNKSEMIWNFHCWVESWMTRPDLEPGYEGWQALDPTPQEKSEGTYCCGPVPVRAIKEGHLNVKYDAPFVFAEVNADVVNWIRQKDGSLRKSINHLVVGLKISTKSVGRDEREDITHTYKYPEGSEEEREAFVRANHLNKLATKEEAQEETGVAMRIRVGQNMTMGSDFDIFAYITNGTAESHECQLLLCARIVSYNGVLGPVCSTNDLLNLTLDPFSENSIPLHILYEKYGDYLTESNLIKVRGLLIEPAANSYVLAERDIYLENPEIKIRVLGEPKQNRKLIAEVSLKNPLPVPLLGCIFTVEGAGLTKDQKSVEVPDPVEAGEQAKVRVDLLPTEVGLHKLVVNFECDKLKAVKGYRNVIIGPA
# Description: Incorporation of [1,4-14C] putrescine into succinylated casein was measured to determine the inhibitory effect of each compound on the activity of transglutaminase 2 (TGase 2). 1 mU of guinea pig liver-originated transglutaminase 2 (Sigma, St. Louis, MO, USA) was preincubated with various concentrations of GK13 or GK921 in a 0.1 mL reaction buffer with or without 10 mM CaCl2 for 10 minutes, and 0.4 mL of a substrate solution containing 2% (w/v) succinylated casein and 100 nCi of [1,4-14C] putrescine. After incubation at 37° C. for 1 hour, 4 mL of cold (4° C.) 7.5% (w/v) trichloroacetic acid (TCA) was added to terminate the reaction. The TCA-insoluble precipitate was recovered with a GF/A-grade glass filter (Millipore, Billerica, MA, USA), washed with cold 5% (w/v) TCA, dried, and assessed with a scintillation counter (Beckman Coulter, Brea, CA, USA) to evaluate radiolabel binding. Transglutaminase 2 which was pre-incubated only with a buffer was used as a positive control. The scintillation counts were compared between the example and the positive control, and IC50 values were determined through the logistic linear regression method. The presented data were the mean values of three independent experiments. In this experimental example and the following experimental example, Streptonigrin (described as KN383 in each figure of the drawing), which is an existing transglutaminase 2 inhibitor, was used as a positive control.
# [6] = test system: ACHN renal cancer cells; assay: Antitumor effect in in vivo renal cancerous tumors, ACHN xenograft, oral administration; set-up: species or system mice; settings: oral administration daily
# Description: (§1) To examine the antitumor effect of LDD3959, CanN.Cg-Foxn1nu/CrljOri mice were used as experimental animals. The mice were xenografted with ACHN renal cancer cells or CAKI-1 renal cancer cells to induce tumors. The ACHN renal cancer cell-transplanted group was orally administered with LDD3959, and the CAKI-1-transplanted group was intraperitoneally administered with LDD3959. In this test, the oral administration was performed daily and the intraperitoneal administration was performed twice a week.
# [7] = test system: CAKI-1 renal cancer cells; assay: Antitumor effect in in vivo renal cancerous tumors, CAKI-1 xenograft, intraperitoneal administration; set-up: species or system mice
# Description: as §1
compound,measurement,setting,value
"O=C1C(Cl)=C(Cl)C(=O)c2[nH]c(-c3ccc(Br)c(F)c3)nc21 [LDD3959, 2-(4-bromo-3-fluorophenyl)-5,6-dichloro-1H-benzo[d]imidazole-4,7-dione]",deaths,"[1]; 2 weeks, female and male ICR mice",no deaths of the subjects occurred
same,adverse responses in blood,[1]; after 2 weeks,no specific adverse responses occurred in blood
same,apoptosis level according to time,[2],"exhibited a low apoptosis level at the initial stage, but the apoptosis level increased"
same,p53 rescue effect (Western blot band of p53),[3],dose-dependent p53 rescue effects
same,concentration with antitumor efficacy,[4],≤ 10 µM
same,mean value of the 2 μM LDD3959,"[5]; 2 μM, negative control 248.5, control 3606.5, standard deviation 0.01",0.09
same,"TGase2 enzyme activity inhibitory effect compared with streptonigrin (KN383, positive control)",[5]; same dose (2 μM),two-fold or greater stronger TGase2 enzyme activity inhibitory effects than the control
same,tumor growth inhibitory effect,[6],concentration-dependent tumor growth inhibitory effects
same,tumor growth inhibitory effect,"[7]; CAKI-1 xenograft, intraperitoneal administration twice a week",concentration-dependent tumor growth inhibitory effects
same,hematological examination,[7]; intraperitoneal administration group,no abnormal findings
